The structures appear in SMILES notation. pIC50: −log10 of the molar value. A value given as a limit tells only on which side of the number the result lay.

For the first assay, the target named is T1, Human Factor XIIa (Homo sapiens, UniProt P00748).
T1 construct: purchased Enzyme Research Laboratories
T1 sequence (P00748 373-615 limits assumed): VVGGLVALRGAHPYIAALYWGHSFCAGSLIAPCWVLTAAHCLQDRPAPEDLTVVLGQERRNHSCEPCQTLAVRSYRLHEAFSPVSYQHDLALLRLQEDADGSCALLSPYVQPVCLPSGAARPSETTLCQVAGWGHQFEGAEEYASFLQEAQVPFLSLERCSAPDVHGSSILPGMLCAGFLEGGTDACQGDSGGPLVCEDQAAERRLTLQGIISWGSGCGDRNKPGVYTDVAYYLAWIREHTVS
Briefly: Factor XIIa inhibitory activity in vitro (fluorogenic substrate H-DPro-Phe-Arg-AFC). Particulars: 25° C., class symbols, read-out: Human FXIIa IC50. Format: biochemical. On the procedure: Determination of the % Inhibition for FXIIa
Human Factor XIIa (Enzyme Research Laboratories) was incubated at 25° C. with the fluorogenic substrate H-DPro-Phe-Arg-AFC and various concentrations of the test compound. Residual enzyme activity (initial rate of reaction) was determined by measuring the change in […] at 410 nm and the IC50 value for the test compound was determined.
For the molecule `Nc1nccc2cc(CNC(=O)[C@H](Cc3ccc(F)c(F)c3)NC(=O)c3c[nH]nc3C3CC3)ccc12` [Example 0.61], the negative-log IC50 (pIC50) is 4.40 to 5.00.

In the case of `Nc1nccc2cc(CNC(=O)[C@H](Cc3ccc(F)c(F)c3)NC(=O)c3ccc(O)nc3)ccc12` [Example 0.62], the pIC50 was 5.00 to 5.52.

As for `Nc1nccc2cc(CNC(=O)[C@H](Cc3ccc(F)c(F)c3)NC(=O)c3cn[nH]c3)ccc12` [Example 0.65], the pIC50 was 4.40 to 5.00.

For `Nc1nccc2cc(CNC(=O)[C@H](Cc3ccc(F)c(F)c3)NC(=O)C(F)F)ccc12` [Example 0.66], the negative-log IC50 (pIC50) is 5.00 to 5.52.

Take `Nc1nccc2cc(CNC(=O)[C@H](Cc3ccc(F)c(F)c3)NC(=O)c3ccc(Cn4cnnn4)cc3)ccc12` [Example 0.67]: the negative-log IC50 (pIC50) is 5.52 to 6.00.

`Nc1nccc2cc(CNC(=O)[C@H](Cc3ccc(F)c(F)c3)NC(=O)c3cccc(Cn4cccn4)c3)ccc12` [Example 0.68]: the negative-log IC50 (pIC50) is 4.40 to 5.00.

As for `Cn1cncc1C(=O)N[C@@H](Cc1ccc(F)c(F)c1)C(=O)NCc1ccc2c(N)nccc2c1` [Example 0.69], the negative logarithm of the IC50 (pIC50) is 4.40 to 5.00.

Consider `CCCn1ncc(C(=O)N[C@@H](Cc2ccc(F)c(F)c2)C(=O)NCc2ccc3c(N)nccc3c2)c1C` [Example 0.70], for which the pIC50 is 4.40 to 5.00.

For `Nc1nccc2cc(CNC(=O)[C@H](Cc3ccc(F)c(F)c3)NC(=O)c3ccncn3)ccc12` [Example 0.71], the pIC50 was 5.00 to 5.52.

Turning to `Nc1nccc2cc(CNC(=O)[C@H](Cc3ccc(F)c(F)c3)NC(=O)C3(C(F)(F)F)CC3)ccc12` [Example 0.72], the negative-log IC50 (pIC50) was 4.40 to 5.00.

Turning to `Nc1nccc2cc(CNC(=O)[C@H](Cc3ccc(F)c(F)c3)NC(=O)c3cc(F)cc(F)c3)ccc12` [Example 0.73], the pIC50 was 4.40 to 5.00.

For the molecule `Nc1nccc2cc(CNC(=O)[C@H](Cc3ccc(F)c(F)c3)NC(=O)c3nc4ccccc4[nH]c3=O)ccc12` [Example 0.74], the pIC50 was 4.40 to 5.00.

`CC(C)c1cc(C(=O)N[C@@H](Cc2ccc(F)c(F)c2)C(=O)NCc2ccc3c(N)nccc3c2)no1` [Example 0.75]: the pIC50 was 5.00 to 5.52.

In the case of `Nc1nccc2cc(CNC(=O)[C@H](Cc3ccc(F)c(F)c3)NC(=O)c3ccc4c(c3)CC=C(O)N4)ccc12` [Example 0.76], the pIC50 is 4.40 to 5.00.

As for `Nc1nccc2cc(CNC(=O)[C@H](Cc3ccc(F)c(F)c3)NC(=O)c3ccsc3)ccc12` [Example 0.77], the negative logarithm of the IC50 (pIC50) is 4.40 to 5.00.

As to `Nc1nccc2cc(CNC(=O)[C@H](Cc3ccc(F)c(F)c3)NC(=O)c3ccco3)ccc12` [Example 0.78], the negative-log IC50 (pIC50) is 5.00 to 5.52.

For the molecule `CCCc1cc(C(=O)N[C@@H](Cc2ccc(F)c(F)c2)C(=O)NCc2ccc3c(N)nccc3c2)nn1C` [Example 0.79], the pIC50 was 5.00 to 5.52.

For the molecule `Nc1nccc2cc(CNC(=O)[C@H](Cc3ccc(F)c(F)c3)NC(=O)c3nccc4ccccc34)ccc12` [Example 0.80], the pIC50 was 4.40 to 5.00.

Turning to `Nc1nccc2cc(CNC(=O)[C@H](Cc3ccc(F)c(F)c3)NC(=O)c3cccc(N4CCCC4=O)c3)ccc12` [Example 0.81], the pIC50 is 5.00 to 5.52.

For the molecule `Nc1nccc2cc(CNC(=O)[C@H](Cc3ccc(F)c(F)c3)NC(=O)c3cccs3)ccc12` [Example 0.82], the pIC50 is 4.40 to 5.00.

Consider `COc1cnccc1C(=O)N[C@@H](Cc1ccc(F)c(F)c1)C(=O)NCc1ccc2c(N)nccc2c1` [Example 0.84], for which the pIC50 was 4.40 to 5.00.

Regarding `Nc1nccc2cc(CNC(=O)[C@H](Cc3ccc(F)c(F)c3)NC(=O)c3cc4ccccc4[nH]3)ccc12` [Example 0.85], the negative-log IC50 (pIC50) is 4.40 to 5.00.

Take `CN(C)C(C)(C)C(=O)N[C@@H](Cc1ccc(F)c(F)c1)C(=O)NCc1ccc2c(N)nccc2c1` [Example 0.86]: the pIC50 is 5.52 to 6.00.

In the case of `CC(C)c1cc(C(=O)N[C@@H](Cc2ccc(F)c(F)c2)C(=O)NCc2ccc3c(N)nccc3c2)ncn1` [Example 0.87], the pIC50 was 6.00 to 6.55.

Turning to `Cn1nc(C(C)(C)C)cc1C(=O)N[C@@H](Cc1ccc(F)c(F)c1)C(=O)NCc1ccc2c(N)nccc2c1` [Example 0.88], the negative-log IC50 (pIC50) is 4.40 to 5.00.

For `CC(C)c1ncncc1C(=O)N[C@@H](Cc1ccc(F)c(F)c1)C(=O)NCc1ccc2c(N)nccc2c1` [Example 0.89], the negative-log IC50 (pIC50) is 4.40 to 5.00.

For the molecule `CC(C)c1cc(C(=O)N[C@@H](Cc2ccc(F)c(F)c2)C(=O)NCc2ccc3c(N)nccc3c2)n(C)n1` [Example 0.90], the negative logarithm of the IC50 (pIC50) is 4.40 to 5.00.

As for `CC(C)c1nc(C(=O)N[C@@H](Cc2ccc(F)c(F)c2)C(=O)NCc2ccc3c(N)nccc3c2)cs1` [Example 0.91], the negative-log IC50 (pIC50) was 4.40 to 5.00.

As for `CC(C)c1ncc(C(=O)N[C@@H](Cc2ccc(F)c(F)c2)C(=O)NCc2ccc3c(N)nccc3c2)cn1` [Example 0.92], the pIC50 was 5.00 to 5.52.

`Nc1nccc2cc(CNC(=O)[C@H](Cc3ccc(F)c(F)c3)NC(=O)c3ccn4ncnc4n3)ccc12` [Example 0.93]: the pIC50 was 5.52 to 6.00.

Turning to `CC1CCCC(C)N1CC(=O)N[C@@H](Cc1cccc2ccccc12)C(=O)NCc1ccc2c(N)nccc2c1` (some centres unmarked) [Example 3.02], the negative-log IC50 (pIC50) was 6.55 to 7.00.

`CN(C)CC(=O)N[C@@H](Cc1ccc(F)c(F)c1)C(=O)NCc1ccc2c(N)nccc2c1` [Example 3.03]: the pIC50 was 5.52 to 6.00.

Take `CC1CCCC(C)N1CC(=O)N[C@@H](Cc1cccc(F)c1)C(=O)NCc1ccc2c(N)nccc2c1` (some centres unmarked) [Example 3.04]: the pIC50 is 6.55 to 7.00.

Regarding `CC1CCCC(C)N1CC(=O)N[C@@H](Cc1ccccc1Cl)C(=O)NCc1ccc2c(N)nccc2c1` (some centres unmarked) [Example 3.05], the pIC50 is 5.52 to 6.00.

Regarding `Nc1nccc2cc(CNC(=O)[C@H](Cc3ccc(F)c(F)c3)NC(=O)CN3CCCCC3)ccc12` [Example 3.06], the pIC50 was 5.52 to 6.00.

Regarding `Nc1nccc2cc(CNC(=O)[C@H](Cc3ccc(F)c(F)c3)NC(=O)CN3CCOCC3)ccc12` [Example 3.07], the pIC50 is 4.40 to 5.00.

Turning to `CC(C)N(C)CC(=O)N[C@@H](Cc1ccc(F)c(F)c1)C(=O)NCc1ccc2c(N)nccc2c1` [Example 3.08], the pIC50 was 6.00 to 6.55.

Consider `CC(C)N(CC(=O)N[C@@H](Cc1ccc(F)c(F)c1)C(=O)NCc1ccc2c(N)nccc2c1)C(C)C` [Example 3.09], for which the pIC50 was 6.00 to 6.55.

Turning to `C[C@@H]1CCC[C@H](C)N1CC(=O)N[C@@H](Cc1csc2ccccc12)C(=O)NCc1ccc2c(N)nccc2c1` [Example 3.10], the pIC50 was 7.00 to 7.52.

As for `C[C@@H]1CCC[C@H](C)N1CC(=O)N[C@@H](Cc1ccccc1)C(=O)NCc1ccc2c(N)nccc2c1` [Example 3.11], the pIC50 was 6.55 to 7.00.

In the case of `C[C@@H]1CCC[C@H](C)N1CC(=O)N[C@@H](Cc1ccc(Cl)cc1)C(=O)NCc1ccc2c(N)nccc2c1` [Example 3.12], the negative logarithm of the IC50 (pIC50) is 5.00 to 5.52.

Regarding `C[C@@H]1CCC[C@H](C)N1CC(=O)N[C@@H](Cc1cccc(Cl)c1)C(=O)NCc1ccc2c(N)nccc2c1` [Example 3.13], the pIC50 is 6.55 to 7.00.

Consider `C[C@@H]1CCC[C@H](C)N1CC(=O)N[C@@H](Cc1ccc(F)cc1)C(=O)NCc1ccc2c(N)nccc2c1` [Example 3.14], for which the pIC50 was 6.55 to 7.00.

In the case of `C[C@@H]1CCC[C@H](C)N1CC(=O)N[C@@H](CCc1ccccc1)C(=O)NCc1ccc2c(N)nccc2c1` [Example 3.15], the pIC50 is 5.52 to 6.00.

In the case of `C[C@@H]1CCC[C@H](C)N1CC(=O)N[C@@H](CC1CCCCC1)C(=O)NCc1ccc2c(N)nccc2c1` [Example 3.16], the pIC50 was 5.00 to 5.52.

`C[C@@H]1CCC[C@H](C)N1CC(=O)N[C@H](Cc1ccc(F)c(F)c1)C(=O)NCc1ccc2c(N)nccc2c1` [Example 3.17]: the negative logarithm of the IC50 (pIC50) is 5.52 to 6.00.

For the molecule `CC1(C)CCCN1CC(=O)N[C@@H](Cc1ccc(F)c(F)c1)C(=O)NCc1ccc2c(N)nccc2c1` [Example 3.18], the pIC50 was 6.00 to 6.55.

For the molecule `C[C@H]1CC[C@H](C)N1CC(=O)N[C@@H](Cc1ccc(F)c(F)c1)C(=O)NCc1ccc2c(N)nccc2c1` [Example 3.19], the pIC50 was 6.00 to 6.55.

Take `C[C@@H]1CC[C@H](C)N1CC(=O)N[C@@H](Cc1ccc(F)c(F)c1)C(=O)NCc1ccc2c(N)nccc2c1` [Example 3.20]: the pIC50 was 6.00 to 6.55.

In the case of `C[C@@H]1CCC[C@H](C)N1CC(=O)N[C@@H](Cc1c[nH]c2ccccc12)C(=O)NCc1ccc2c(N)nccc2c1` [Example 3.21], the pIC50 is 6.55 to 7.00.

As to `CC[C@H](NC(=O)CN1[C@H](C)CCC[C@@H]1C)C(=O)NCc1ccc2c(N)nccc2c1` [Example 3.22], the pIC50 was 5.00 to 5.52.

As for `Nc1nccc2cc(CNC(=O)[C@H](Cc3ccc(F)c(F)c3)NC(=O)Cc3cccnc3)ccc12` [Example 3.23], the pIC50 is 4.40 to 5.00.

Regarding `CS(=O)(=O)c1cccc(CC(=O)N[C@@H](Cc2ccc(F)c(F)c2)C(=O)NCc2ccc3c(N)nccc3c2)c1` [Example 3.24], the pIC50 was 5.00 to 5.52.

On to `N#Cc1cccc(CC(=O)N[C@@H](Cc2ccc(F)c(F)c2)C(=O)NCc2ccc3c(N)nccc3c2)c1` [Example 3.25], for which the pIC50 is 4.40 to 5.00.

Consider `Nc1nccc2cc(CNC(=O)[C@H](Cc3ccc(F)c(F)c3)NC(=O)Cc3ccsc3)ccc12` [Example 3.26], for which the pIC50 was 4.40 to 5.00.

Regarding `Cc1ccc(CN(C)CC(=O)N[C@@H](Cc2ccc(F)c(F)c2)C(=O)NCc2ccc3c(N)nccc3c2)cc1` [Example 3.27], the pIC50 was 4.40 to 5.00.

With `CC(C)(O)CC(=O)N[C@@H](Cc1ccc(F)c(F)c1)C(=O)NCc1ccc2c(N)nccc2c1` [Example 3.28], the pIC50 was 4.40 to 5.00.

The same assay, now with this note: 25° C., numeric bound instead of class symbol, read-out: Human FXIIa IC50.
Regarding `Cc1nc(C(F)(F)F)ccc1C(=O)N[C@@H](Cc1ccc(F)c(F)c1)C(=O)NCc1ccc2c(N)nccc2c1` [Example 0.63], the pIC50 was less than 4.90.

With `Cc1ccnn1-c1ccc(C(=O)N[C@@H](Cc2ccc(F)c(F)c2)C(=O)NCc2ccc3c(N)nccc3c2)cc1` [Example 0.83], the negative logarithm of the IC50 (pIC50) is less than 4.90.

The pIC50 is −log10 of the IC50, conventionally taken in molar units.

For the origin of these results see US20220298138A1, “ENZYME INHIBITORS” (KALVISTA PHARMACEUTICALS LIMITED, priority 2019, published 2022).
